{"source": "patent US9597362B2", "about": "“Use of probiotic bacteria in the treatment of infection” (TEAGASC, THE AGRICULTURE AND FOOD DEVELOPMENT AUTHORITY, priority 2003, dated 2017)", "origin": "cited, not measured here", "key": {"Gram-positive bacteria": {"system": "Gram-positive bacteria", "conditions": "including methicillin resistant staphylococci, vancomycin resistant enterococci, penicillin resistant pneumococci"}}}
{"substance": "Lacticin 3147", "values": [{"measurement": "bactericidal spectrum", "setting": "Gram-positive bacteria", "result": "kills all Gram-positive bacteria tested to date"}]}
{"substance": "Lactobacillus acidophilus", "values": [{"measurement": "pathogen translocation compared with control mice", "setting": "Salmonella typhimurium; mice fed the probiotic prior to oral challenge", "result": "reduced pathogen translocation to the spleen and liver"}, {"measurement": "survival", "setting": "Salmonella typhimurium; probiotic-fed groups", "result": "increased survival of mice"}]}
